From paper PMC10928841, “Ames test study designs for nitrosamine mutagenicity testing: qualitative and quantitative analysis of key assay parameters” (Mutagenesis, 2023)
Read-outs that look alike come from different tables or passages of the source.

Assays:
CYP2E1 [1] = molecular target: CYP2E1 (Rattus norvegicus, UniProt P05182); assay: Effect of vehicle on CYP2E1 activity of rat liver S9 (chlorzoxazone 6-hydroxylation); details: induced rat liver S9; vehicle 7.7% (v/v); chlorzoxazone 10 µM; 30 min
CYP2E1 [2] = molecular target: CYP2E1 (Mesocricetus auratus, UniProt P51581); assay: Effect of vehicle on CYP2E1 activity of hamster liver S9 (chlorzoxazone 6-hydroxylation); details: vehicle 7.7% (v/v), chlorzoxazone 10 µM, 30 min; for effect on conversion of chlorzoxazone to 6-hydroxychlorzoxazone compared with water: induced hamster liver S9; for reduction of 6-hydroxychlorzoxazone formation compared with water: Aroclor-induced hamster liver S9
[3] = system: S. typhimurium and E. coli tester strains; assay: Benchmark dose (BMD) modelling of positive Ames test dose-response data; type: cell-based, Salmonella typhimurium and Escherichia coli; details: BMR 100%; all positive combinations of vehicle, method, strain and S9
Experimental: Benchmark dose analyses were carried out using the freely available PROAST R-package (version 70.3) (http://www.proast.nl). Ames test dose–response data (with cytotoxic test concentrations removed) were analysed using the exponential model family recommended by EFSA for the assessment of continuous (geno)toxicity dose–response data [37]. Where combined analyses were used, dose–response relationships were analysed using the assay conditions discriminating the subgroups (i.e. sub-study) as a covariate. To prevent overfitting, more complex models with additional parameters were only accepted if the goodness-of-fit exceeded the critical value at P < .05. PROAST outputs designate potency (i.e. the benchmark dose (BMD)) and its two-sided, 90% confidence interval (i.e. the BMDL and BMDU) as the ‘Critical Effect Dose’ (i.e. yielding a CED, CEDL, and CEDU), respectively, for each level of the covariate. Using the combined-covariate BMD approach [38], the model parameters that required estimation for each subgroup and those that could be considered constant across subgroups were established for the combined dataset. In general, the combined analyses presented here assumed that parameters for the maximum response (parameter c), log-steepness (parameter d) were equal for all subgroups, while the background response (parameter a), potency (parameter b), and within-group variation (var) were tested for subgroup dependence [39]. Model fits were used to visually evaluate the validity of the assumption of conserved shape. […]
To further understand the impact of different test parameters on test outcomes, BMD-derived potency/sensitivity rankings [38] were generated from the dose–response relationships for NDMA and NDEA. […] Instead, the purpose is to quantitatively provide a means to compare the potency/sensitivity of different assay conditions, that is, bacterial strain, S9 source, vehicle, and plate/pre-incubation methods, to inform on optimal study designs for robust/sensitive mutagenicity calls. […]

E. coli WP2uvrA (pKM101) [4] = details: for increase in mutant frequency at the limit concentration: 5000 µg/plate
Salmonella typhimurium = details: cited from earlier work
S. typhimurium TA98 = assay: Ames test, pre-incubation method, TA98; details: vehicle acetonitrile, up to 5000 µg/plate
S. typhimurium TA1537 = assay: Ames test, pre-incubation method, TA1537; details: S9 hamster, vehicle acetonitrile, up to 5000 µg/plate
E. coli WP2uvrA (pKM101) [5] = assay: Ames test, pre-incubation method, WP2uvrA (pKM101); details: for increase in mutant frequency compared with vehicle controls: 5000 µg/plate
rat = system: rat; parameters: method as in PMID 4230610; details: historical data; cited from earlier work
S. typhimurium TA100 = assay: Ames test, pre-incubation method, TA100
S. typhimurium TA1535 = assay: Ames test, pre-incubation method, TA1535; details: hamster liver S9-mix, vehicle water, 5000 µg/plate
[6] = plate incorporation, rat liver S9-mix, vehicle methanol, E. coli WP2uvrA (pKM101)
[7] = plate incorporation, rat liver S9-mix, vehicle water, E. coli WP2uvrA (pKM101)
[8] = rat liver S9-mix, vehicle methanol

Sequence of CYP2E1 (Rattus norvegicus, UniProt P05182) (P05182 whole entry): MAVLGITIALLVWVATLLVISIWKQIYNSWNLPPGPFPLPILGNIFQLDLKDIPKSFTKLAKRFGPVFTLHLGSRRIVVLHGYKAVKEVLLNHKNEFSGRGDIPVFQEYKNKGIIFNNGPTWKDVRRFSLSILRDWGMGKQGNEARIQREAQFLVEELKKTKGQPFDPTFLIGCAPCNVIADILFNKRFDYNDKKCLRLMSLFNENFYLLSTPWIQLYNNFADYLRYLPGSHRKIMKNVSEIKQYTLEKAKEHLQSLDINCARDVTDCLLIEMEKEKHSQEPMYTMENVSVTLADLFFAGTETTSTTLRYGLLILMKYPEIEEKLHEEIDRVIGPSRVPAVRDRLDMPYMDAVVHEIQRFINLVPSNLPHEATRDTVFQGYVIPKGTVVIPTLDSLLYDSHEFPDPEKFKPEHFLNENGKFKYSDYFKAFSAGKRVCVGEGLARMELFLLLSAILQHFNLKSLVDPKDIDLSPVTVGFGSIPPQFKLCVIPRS
Sequence of CYP2E1 (Mesocricetus auratus, UniProt P51581) (P51581 whole entry): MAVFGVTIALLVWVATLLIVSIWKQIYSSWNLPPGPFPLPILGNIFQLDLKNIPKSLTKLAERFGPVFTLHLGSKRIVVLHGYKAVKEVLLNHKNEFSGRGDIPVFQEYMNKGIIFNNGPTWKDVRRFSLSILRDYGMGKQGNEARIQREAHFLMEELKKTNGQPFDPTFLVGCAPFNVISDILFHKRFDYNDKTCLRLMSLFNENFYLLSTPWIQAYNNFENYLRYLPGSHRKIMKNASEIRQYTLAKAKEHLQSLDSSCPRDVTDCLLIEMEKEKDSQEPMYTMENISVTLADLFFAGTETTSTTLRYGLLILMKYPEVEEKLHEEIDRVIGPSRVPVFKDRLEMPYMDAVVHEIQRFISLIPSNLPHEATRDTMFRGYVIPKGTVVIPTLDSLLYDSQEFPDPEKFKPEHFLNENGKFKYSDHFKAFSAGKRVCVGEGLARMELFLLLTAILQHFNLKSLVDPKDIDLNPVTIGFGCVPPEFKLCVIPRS

## C[S+](C)[O-] [DMSO, dimethylsulfoxide]
CYP2E1 [1]
  effect on conversion of chlorzoxazone to 6-hydroxychlorzoxazone compared with water: inhibit
CYP2E1 [2]
  effect on conversion of chlorzoxazone to 6-hydroxychlorzoxazone compared with water: inhibit

## CO [Methanol, methanol]
CYP2E1 [1]
  effect on conversion of chlorzoxazone to 6-hydroxychlorzoxazone compared with water: negligible effect
CYP2E1 [2]
  reduction of 6-hydroxychlorzoxazone formation compared with water: ~ 50%

## CCN(CC)N=O [NDEA, N-nitrosodiethylamine]
[3]
  range in sensitivity/potency (BMD100 confidence intervals) across positive datasets: ~ 100 fold
E. coli WP2uvrA (pKM101) [4]
  Ames test strain WP2*: +
E. coli WP2uvrA (pKM101) [4]; plate incorporation, rat liver S9-mix, all three vehicles water, methanol or DMSO, E. coli WP2uvrA (pKM101)
  concentration giving concentration-dependent increases in mutant frequency: ≥ 1500 µg/plate
Salmonella typhimurium; not tested in the current study
  mutagenicity in the absence of metabolic activation: non-mutagenic
S. typhimurium TA98; S9 hamster
  Ames test strain TA98: Toxic
S. typhimurium TA98; S9 rat
  Ames test strain TA98: Toxic
S. typhimurium TA1537
  Ames test strain TA1537: Toxic

## CN(C)N=O [NDMA, N-Nitrosodimethylamine]
[3]
  range in sensitivity/potency (BMD100 confidence intervals) across positive datasets: ~ 1000 fold
E. coli WP2uvrA (pKM101) [4]; [6]
  concentration giving an increase in revertant colonies compared with vehicle controls: 5000 µg/plate
E. coli WP2uvrA (pKM101) [4]; [7]
  concentration giving an increase in revertant colonies compared with vehicle controls: ≥ 1500 µg/plate
E. coli WP2uvrA (pKM101) [5]; rat liver S9, vehicle methanol
  increase in mutant frequency compared with vehicle controls: 2 fold
E. coli WP2uvrA (pKM101) [5]; rat liver S9, vehicle water
  increase in mutant frequency compared with vehicle controls: 2.6 fold

## CCN(C)N=O [NMEA, N-nitrosomethylethylamine]
[3]
  range in sensitivity/potency (BMD100 confidence intervals) across positive datasets: 1000 fold
E. coli WP2uvrA (pKM101) [4]; [6]
  concentration giving an increase in revertant colonies compared with vehicle controls: ≥ 1500 µg/plate
  increase in mutant frequency at the limit concentration: 4.3 fold
E. coli WP2uvrA (pKM101) [4]; [7]
  concentration giving an increase in revertant colonies compared with vehicle controls: ≥ 2500 µg/plate
  increase in mutant frequency at the limit concentration: 2.7 fold
Salmonella typhimurium; historical data
  Ames test (legacy result): negative
rat
  rodent cancer bioassay: positive
S. typhimurium TA100; hamster liver S9-mix, vehicle water, 5000 µg/plate
  fold-increase at the limit concentration: 32 fold
S. typhimurium TA100; [8]
  concentration giving a concentration-related increase in revertant colonies: ≥ 1500 µg/plate
S. typhimurium TA1535
  fold-increase at the limit concentration: 275 fold
E. coli WP2uvrA (pKM101) [5]; [8]
  concentration giving a positive response: 5000 µg/plate

## CC(C)=O [acetone]
CYP2E1 [1]
  effect on conversion of chlorzoxazone to 6-hydroxychlorzoxazone compared with water: negligible effect
CYP2E1 [2]
  reduction of 6-hydroxychlorzoxazone formation compared with water: ~ 75%

## CC#N [acetonitrile]
CYP2E1 [1]
  effect on conversion of chlorzoxazone to 6-hydroxychlorzoxazone compared with water: inhibit
CYP2E1 [2]
  effect on conversion of chlorzoxazone to 6-hydroxychlorzoxazone compared with water: inhibit
